Reference: PMC4282330, “The yeast enzyme Eht1 is an octanoyl-CoA:ethanol acyltransferase that also functions as a thioesterase” (Yeast (Chichester, England), 2014)
“And” between values parts separate entries of the source, which are not always exact repeats. Equal values may be shown once.

T1: Eht1 (Saccharomyces cerevisiae, UniProt P38295)
T1 construct: 55 kDa
T1 sequence (P38295 1-451): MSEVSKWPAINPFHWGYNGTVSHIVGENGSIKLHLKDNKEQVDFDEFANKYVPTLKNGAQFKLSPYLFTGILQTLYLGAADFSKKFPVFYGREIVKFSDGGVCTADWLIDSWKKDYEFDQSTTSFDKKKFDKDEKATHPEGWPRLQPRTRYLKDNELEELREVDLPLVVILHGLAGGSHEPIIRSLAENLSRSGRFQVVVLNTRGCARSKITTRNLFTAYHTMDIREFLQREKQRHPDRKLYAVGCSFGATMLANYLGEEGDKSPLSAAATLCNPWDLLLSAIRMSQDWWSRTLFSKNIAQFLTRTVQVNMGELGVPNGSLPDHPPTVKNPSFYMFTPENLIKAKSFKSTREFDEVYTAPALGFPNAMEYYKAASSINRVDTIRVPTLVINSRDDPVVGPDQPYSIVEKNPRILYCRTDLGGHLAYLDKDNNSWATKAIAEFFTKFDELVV

B1: ethanol hexanoyl transferase 1 (Eht1) (enzyme, Saccharomyces cerevisiae, UniProt P38295 1-451, looked up)
chain: T1 sequence (P38295 1-451)
notes: Theoretical mass of the recombinant protein is printed as 55 kDa; also called recombinant Eht1; YBR177C gene product; source: yeast, plasmid pYES2CT, galactose-induced; purified from FC12-solubilized sedimenting membranes (Ni-NTA)

Legend:
Eht1 = biological target: T1, Eht1; experiment: coupled alpha-ketoglutarate dehydrogenase assay of CoA release (NADH); assay type: biochemical; details: 0.125% ethanol, pH 7.4, 25 °C; assay insensitive to ethanol (thioesterase)
[1] = substrate: CCCCCCCC(=O)SCCNC(=O)CCNC(=O)[C@H](O)C(C)(C)COP(=O)(O)OP(=O)(O)OC[C@H]1O[C@@H](n2cnc3c(N)ncnc32)[C@H](O)[C@@H]1OP(=O)(O)O; experiment: as above; assay type: biochemical, Saccharomyces cerevisiae; details: 0.125% ethanol, pH 7.4, 25 °C, assay insensitive to ethanol (thioesterase)
Text: coupled alpha-ketoglutarate dehydrogenase assay of CoA release (NADH) on Eht1 | the preferred substrate for Eht1 was octanoyl-CoA (largest kcat/KM)

[2] = biological target: the molecule itself; experiment: SEC; Superdex 200 10/300 GL, 0.5 ml/min, in Column Buffer (50 mM sodium phosphate, pH 7.4, 150 mM NaCl, 5% glycerol, 0.1% FC-12); apparent size relative to molecular weight standards
[3] = biological target: the molecule itself; experiment: native gel or EMSA; blue native PAGE, 4–16% acrylamide Bis–Tris gels, Coomassie G-250 added to samples at 0.005%; purified Eht1 in FC12

| Molecule | KM (Eht1) | other results |
| --- | --- | --- |
| CCCC(=O)SCCNC(=O)CCNC(=O)[C@H](O)C(C)(C)COP(=O)(O)OP(=O)(O)OC[C@H]1O[C@@H](n2cnc3c(N)ncnc32)[C@H](O)[C@@H]1OP(=O)(O)O [C4, acyl-CoA of chain length C4] | acyl-CoA substrates of chain length C4–C14 followed classical Michaelis–Menten kinetics | – |
| CCCCCCCCCCCCCC(=O)SCCNC(=O)CCNC(=O)[C@H](O)C(C)(C)COP(=O)(O)OP(=O)(O)OC[C@H]1O[C@@H](n2cnc3c(N)ncnc32)[C@H](O)[C@@H]1OP(=O)(O)O [C14, acyl-CoA of chain length C14] | acyl-CoA substrates of chain length C4–C14 followed classical Michaelis–Menten kinetics | – |
| CCCCCCCCCCCC(=O)SCCNC(=O)CCNC(=O)[C@H](O)C(C)(C)COP(=O)(O)OP(=O)(O)OC[C@H]1O[C@@H](n2cnc3c(N)ncnc32)[C@H](O)[C@@H]1OP(=O)(O)O [acyl-CoA within chain lengths C4–C14 (C12)] | acyl-CoA substrates of chain length C4–C14 followed classical Michaelis–Menten kinetics | – |
| CCCCCCCCCC(=O)SCCNC(=O)CCNC(=O)[C@H](O)C(C)(C)COP(=O)(O)OP(=O)(O)OC[C@H]1O[C@@H](n2cnc3c(N)ncnc32)[C@H](O)[C@@H]1OP(=O)(O)O [decanoyl-CoA] | acyl-CoA substrates of chain length C4–C14 followed classical Michaelis–Menten kinetics | – |
| B1 | – | Km [1]: 1.9 ± 0.6 µM; kcat [1]: 0.28 ± 0.02 s⁻¹; stoichiometry N [2]: ~5; stoichiometry N [3]: ~2 and ~4 |
